Patent US3980794A, “Method for promoting growth of poultry with 3-(5-nitro-2-imidazolyl)pyrazoles” (Eli Lilly and Company, priority 1975, dated 1976)
In brackets after ≈: the same amount, converted by molar mass. Read-outs that look alike come from different tables or passages of the source.

Legend:
Pasteurella multocida = assay: Efficacy against Pasteurella multocida infections in mice when administered by injection (Experiment 1); format: in vivo, Swiss mice; settings: ip; for responders at 2.5 mg/kg: 2.5 mg./kg. i.p.; for responders at 5 mg/kg: 5.0 mg./kg. i.p.; for responders at 7.5 mg/kg: 7.5 mg./kg. i.p.
Procedure: The efficacy of the novel compounds against Pasteurella multocida infections in mice when administered by injection was studied.
Female Swiss mice weighing from 15 to about 20 g. were used. The test compound, 5.0 mg., was weighed out and dissolved in 0.5 ml. of dimethyl sulfoxide, and this solution was added to 9.5 ml. of sodium carboxymethylcellulose suspension. Groups of five mice each were injected intraperitoneally with 0.1 ml. each of the above-prepared test composition. This preparation gave a test rate of 2.5 mg. per kilo of body weight of mouse. The compounds were tested at 2.5, 5.0, or 7.5 mg. per kilo of body weight of mouse, and the test preparations for rates of 5.0 and 7.5 mg./kg. were prepared in a similar manner. Immediately after receiving the test compound, the mice were challenged using log10 dilutions of 10^-^4, 10^-^5, 10^-^6, and 10^-^7 of a 16 to 20-hour tryptose broth culture of Pasteurella multocida at 0.1 ml. per mouse subcutaneously. Similar groups of nontreated control mice were also challenged, the challenge being administered subcutaneously. The groups of mice were observed daily for mortality and the total mortality in treated groups compared with that which occurred in the nonmedicated control groups. Each test compound is identified by the number of the example describing its preparation.
In the chart, column 1 lists the test compound; column 2, the dosage of test compound in mg./kg. of mouse body weight; column 3, the dilution of the challenge organism; and column 4, the ratio of the number of mice surviving the test at each dosage and challenge dilution to the number of mice tested at each dosage and challenge dilution, called the survival ratio.

Salmonella typhimurium = assay: Control of infections caused by Salmonella typhimurium in chickens, subcutaneous (Experiment 2); format: in vivo; settings: Salmonella enterica, sc, 144 h, 6 days, read-out: Survival Ratio (converted); for responders at 7.5 mg/kg: 7.5 mg./kg. subcutaneous; for responders at 15 mg/kg: 15 mg./kg. subcutaneous; for responders at 30 mg/kg: 30 mg./kg. subcutaneous; for responders at 60 mg/kg: 60 mg./kg. subcutaneous; for responders at 3.75 mg/kg: 3.75 mg./kg. subcutaneous
[1] = test system: Eubacterium aerofaciens 1235; assay: Susceptibility of anaerobic bacteria, agar dilution; format: cell-based; settings: read-out: 24 Hr. Minimum Inhibitory Concentration
[2] = test system: Propionibacterium acnes 79; assay: as above; format: cell-based; settings: read-out: 24 Hr. Minimum Inhibitory Concentration
[3] = test system: Bacteroides fragilis sp. vulgatus 1563; assay: as above; format: cell-based; settings: 24 h, read-out: 24 Hr. Minimum Inhibitory Concentration
[4] = test system: Bacteroides fragilis sp. vulgatus 1211; assay: as above; format: cell-based; settings: 24 h, read-out: 24 Hr. Minimum Inhibitory Concentration
[5] = test system: Fusobacterium necrophorum 13859; assay: as above; format: cell-based; settings: read-out: 24 Hr. Minimum Inhibitory Concentration
[6] = challenge dilution 10^-^4, read-out: Survival Ratio (converted)
[7] = challenge dilution 10^-^5, read-out: Survival Ratio (converted)
[8] = challenge dilution 10^-^6, read-out: Survival Ratio (converted)
[9] = Collinsella aerofaciens, 1235, 24 h
[10] = Fusobacterium necrophorum, 13859, 24 h
[11] = challenge dilution 10^-^4, read-out: Survival Ratio
[12] = challenge dilution 10^-^5, read-out: Survival Ratio
[13] = challenge dilution 10^-^6, read-out: Survival Ratio
[14] = Collinsella aerofaciens, 24 h, Eubacterium aerofaciens 1235
[15] = Cutibacterium acnes, 24 h, Propionibacterium acnes 79
[16] = Bacteroides fragilis sp. vulgatus 1563
[17] = Bacteroides fragilis sp. vulgatus 1211
[18] = 24 h, Fusobacterium necrophorum 13859
[19] = challenge dilution 10^-^7, read-out: Survival Ratio (converted)

SMILES	responders at 2.5 mg/kg (Pasteurella multocida; [6])	responders at 2.5 mg/kg (Pasteurella multocida; [7])	responders at 2.5 mg/kg (Pasteurella multocida; [8])	responders at 7.5 mg/kg (Salmonella typhimurium)	responders at 15 mg/kg (Salmonella typhimurium)	responders at 30 mg/kg (Salmonella typhimurium)	responders at 60 mg/kg (Salmonella typhimurium)	MIC [1, 9]	MIC ([2]; Cutibacterium acnes, 79, 24 h)	MIC ([3]; Bacteroides fragilis)	MIC ([4]; Bacteroides fragilis)	MIC [5, 10]	responders at 5 mg/kg (Pasteurella multocida; [6])	responders at 5 mg/kg (Pasteurella multocida; [7])	responders at 5 mg/kg (Pasteurella multocida; [8])	responders at 7.5 mg/kg (Pasteurella multocida; [11])	responders at 7.5 mg/kg (Pasteurella multocida; [12])	responders at 7.5 mg/kg (Pasteurella multocida; [13])	MIC [1, 14]	MIC [2, 15]	other results
Cn1nc(-c2ncc([N+](=O)[O-])n2C)c(C(N)=O)c1N [Compound 2, 5-Amino-1-methyl-3-(1-methyl-5-nitro-2-imidazolyl)pyrazole-4-carboxamide]	50%	90%	100%	0%	40%	44%	46.7%	< 0.125 µg/mL	< 0.125 µg/mL	< 0.125 µg/mL	< 0.125 µg/mL	< 0.125 µg/mL									
CCCCC(CC)COC=Nc1c(C#N)c(-c2ncc([N+](=O)[O-])n2C)nn1C (stereo not shown) [Compound 13D, 2-Ethylhexyl N-[4-cyano-1-methyl-3-(1-methyl-5-nitro-2-imidazolyl)pyrazol-5-yl]formimidate]	30%	70%	90%		10%	10%	33.3%						90%	100%	100%	100%	100%	100%	2 µg/mL (≈ 5.16 µM)	2 µg/mL (≈ 5.16 µM)	MIC [3, 16]: 0.5 µg/mL (≈ 1.29 µM); MIC [4, 17]: 1 µg/mL (≈ 2.58 µM); MIC [5, 18]: < 0.125 µg/mL
CC(=O)Nc1c(C(=O)O)c(-c2ncc([N+](=O)[O-])n2C)nn1C [Compound 12, 5-acetamido-1-methyl-3-(1-methyl-5-nitro-2-imidazolyl)pyrazole-4-carboxylic acid]													0%	30%	70%				1 µg/mL (≈ 3.24 µM)	1 µg/mL (≈ 3.24 µM)	MIC [3, 16]: 1 µg/mL (≈ 3.24 µM); MIC [4, 17]: 2 µg/mL (≈ 6.49 µM); MIC [5, 18]: < 0.125 µg/mL
Cn1nc(-c2ncc([N+](=O)[O-])n2C)c(C#N)c1N [Compound 1, 5-Amino-1-methyl-3-(1-methyl-5-nitro-2-imidazolyl)pyrazole-4-carbonitrile]	10%	40%	80%	62.9%	72%	54%	67.1%	< 0.125 µg/mL	< 0.125 µg/mL	< 0.125 µg/mL	< 0.125 µg/mL	< 0.125 µg/mL	30%	90%	90%	70%	90%	100%			responders at 2.5 mg/kg (Pasteurella multocida; [19]): 95%; responders at 5 mg/kg (Pasteurella multocida; [19]): 100%; responders at 3.75 mg/kg (Salmonella typhimurium): 44%
C=CCOC=Nc1c(C#N)c(-c2ncc([N+](=O)[O-])n2C)nn1C [Compound 13A, Allyl N-[4-cyano-1-methyl-3-(1-methyl-5-nitro-2-imidazolyl)pyrazol-5-yl]formimidate]				46.7%	53.3%	33.3%	50%						60%	80%	100%				< 0.125 µg/mL	< 0.125 µg/mL	responders at 3.75 mg/kg (Salmonella typhimurium): 40%; MIC [3, 16]: 0.25 µg/mL (≈ 0.793 µM); MIC [4, 17]: < 0.125 µg/mL; MIC [5, 18]: < 0.125 µg/mL
COC=Nc1c(C#N)c(-c2ncc([N+](=O)[O-])n2C)nn1C [Compound 6, Methyl N-[4-cyano-1-methyl-3-(1-methyl-5-nitro-2-imidazolyl)pyrazol-5-yl]formimidate]	90%	50%	90%	90%	50%	50%	46.7%	< 0.125 µg/mL	< 0.125 µg/mL	< 0.125 µg/mL	< 0.125 µg/mL	< 0.125 µg/mL	80%	90%	100%	90%	90%	100%			responders at 2.5 mg/kg (Pasteurella multocida; [19]): 100%; responders at 3.75 mg/kg (Salmonella typhimurium): 80%
CCCCOC=Nc1c(C#N)c(-c2ncc([N+](=O)[O-])n2C)nn1C [Compound 7, Butyl N-[4-Cyano-1-methyl-3-(1-methyl-5-nitro-2-imidazolyl)-pyrazol-5-yl]formimidate]	15%	35%	70%	0%	55%	40%	55%	< 0.125 µg/mL	< 0.125 µg/mL	< 0.125 µg/mL	< 0.125 µg/mL	< 0.125 µg/mL	30%	45%	75%	50%	70%	100%			
